Test systems include A498 renal; HCT-116 colon; HS 578T breast; LOX IMVI melanoma; MALME-3M melanoma; OVCAR-3 ovarian; PC-3 prostate; SK-MEL-5 melanoma; UACC-62 melanoma; UO-31 renal.
Common to all, as to assay: growth of human tumour cells (NCI), 48 h

SMILES strings stand for the structures. “And” between values parts separate entries of the source, which are not always exact repeats. Equal entries are not always repeated.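 Results reflect a 48-hour exposure of cells in 96-well plates to compound at five concentrations. GI50 marks 50% less growth. TGI marks complete inhibition of growth.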 Where only a bound is given, the exact number is not on record here.

Consider `NP(=O)(Oc1c2occc2cc2ccc(=O)oc12)N(CCCl)CCCl` (stereo unspecified), for which the TGI in the assay on A498 renal, in the assay with HCT-116 colon, in the assay with HS 578T breast, in the assay on LOX IMVI melanoma, with MALME-3M melanoma and in the assay on OVCAR-3 ovarian was above 100 µM throughout. Further, the TGI in the assay with PC-3 prostate, with SK-MEL-5 melanoma, in the assay on UACC-62 melanoma and with UO-31 renal was above 100 µM each time.
Turning to `COc1ccc(/C=C/c2ccnc3ccccc23)c(OC)c1`, the TGI in the assay on A498 renal, in the assay on HCT-116 colon, in the assay on HS 578T breast, with LOX IMVI melanoma, with MALME-3M melanoma and in the assay on OVCAR-3 ovarian was above 10 µM each time. Moreover, the TGI in the assay with PC-3 prostate, with SK-MEL-5 melanoma, in the assay on UACC-62 melanoma and with UO-31 renal was above 10 µM each time.
Regarding `CCCCCCCC/C=C/CCCCCCCC(=O)OC[C@H]1O[C@@H](n2ccc(N)nc2=O)C(F)(F)[C@@H]1O`, the GI50 in the assay with A498 renal is below 0.0218 µM; with HCT-116 colon, below 0.018 µM; in the assay on HS 578T breast, above 59.9 µM; in the assay with LOX IMVI melanoma, 0.0418 µM; in the assay on MALME-3M melanoma it was 0.0463 µM; in the assay with OVCAR-3 ovarian it was 8.86 µM. In addition, the GI50 with PC-3 prostate is 0.752 µM; in the assay on SK-MEL-5 melanoma it was 0.0327 µM; in the assay with UACC-62 melanoma, 0.0331 µM; with UO-31 renal, below 0.0136 µM. Moreover, the TGI is 6.32 µM in the assay on A498 renal; above 100 µM with HCT-116 colon; above 100 µM with HS 578T breast; above 35.9 µM with LOX IMVI melanoma; above 100 µM with MALME-3M melanoma; above 100 µM in the assay on OVCAR-3 ovarian. Further, the TGI with PC-3 prostate was above 100 µM; with SK-MEL-5 melanoma, above 100 µM; in the assay on UACC-62 melanoma, above 100 µM; in the assay on UO-31 renal it was 0.125 µM.
With `NS(=O)(=O)c1ccc(NC2(C(=O)O)CCCC2)cc1`, the TGI in the assay with A498 renal, with HCT-116 colon, in the assay on HS 578T breast, in the assay with LOX IMVI melanoma, with MALME-3M melanoma and in the assay with OVCAR-3 ovarian was above 100 µM each time. For the same compound, the TGI in the assay on PC-3 prostate, in the assay with SK-MEL-5 melanoma, with UACC-62 melanoma and in the assay on UO-31 renal was above 100 µM in each case.
Take `C=C1C(=O)O[C@@H]2/C=C(\C)CC/C=C(/COC(C)=O)C[C@@H](OC(C)=O)[C@@H]12`: the TGI in the assay on A498 renal is 36.6 µM; in the assay on HCT-116 colon it was 14.6 µM; in the assay with HS 578T breast it was above 70.2 µM; with LOX IMVI melanoma it was 13.1 µM; in the assay on MALME-3M melanoma, 8.85 µM; with OVCAR-3 ovarian, 14.2 µM. Further, the TGI came out at 36.4 µM in the assay with PC-3 prostate, 25.7 µM with SK-MEL-5 melanoma, 26.4 µM with UACC-62 melanoma and 22.3 µM in the assay with UO-31 renal.
Regarding `c1cc(CNC23CC4CC(CC(C4)C2)C3)cc(C[N+](Cc2cccc(CNC34CC5CC(CC(C5)C3)C4)c2)(Cc2cccc(CNC34CC5CC(CC(C5)C3)C4)c2)Cc2cccc(CNC34CC5CC(CC(C5)C3)C4)c2)c1` (stereo unspecified), the GI50 in the assay on A498 renal was 4.98 µM; in the assay on HCT-116 colon, 3.04 µM; with HS 578T breast, 8.01 µM; in the assay on LOX IMVI melanoma it was 2.11 µM; with MALME-3M melanoma, 3.51 µM; in the assay on OVCAR-3 ovarian, 4.35 µM. Further, the GI50 is 5.86 µM in the assay with PC-3 prostate, 6.36 µM in the assay on SK-MEL-5 melanoma, 4.86 µM in the assay on UACC-62 melanoma and 3.41 µM in the assay on UO-31 renal. Also, the TGI in the assay on A498 renal was 29.5 µM; in the assay with HCT-116 colon, 8.42 µM; with HS 578T breast, 49.4 µM; in the assay on LOX IMVI melanoma, 5.3 µM; in the assay on MALME-3M melanoma, 7.77 µM; in the assay on OVCAR-3 ovarian, 11.8 µM. Moreover, the TGI with PC-3 prostate amounted to 21.6 µM; in the assay on SK-MEL-5 melanoma, 26.3 µM; with UACC-62 melanoma, 15.4 µM; in the assay on UO-31 renal it was 8.21 µM.
As to `CN1C/C=C\CCOc2cccc(c2)-c2ccnc(n2)Nc2cccc(c2)C1`, the GI50 in the assay on A498 renal was 0.0572 µM; in the assay on HCT-116 colon it was 0.0298 µM; in the assay with HS 578T breast, 0.0641 µM; with LOX IMVI melanoma, 0.0343 µM; in the assay on MALME-3M melanoma it was 0.107 µM; with OVCAR-3 ovarian, 0.0419 µM. Also, the GI50 in the assay with PC-3 prostate was 0.0713 µM; with SK-MEL-5 melanoma it was 0.0502 µM; in the assay on UACC-62 melanoma, 0.0259 µM; in the assay on UO-31 renal, 0.0324 µM. Further, the TGI was 0.156 µM with A498 renal; 0.677 µM in the assay with HCT-116 colon; 0.82 µM with HS 578T breast; 1.06 µM in the assay with LOX IMVI melanoma; 0.454 µM in the assay with MALME-3M melanoma; 0.769 µM in the assay with OVCAR-3 ovarian. In addition, the TGI in the assay on PC-3 prostate was 0.435 µM; in the assay on SK-MEL-5 melanoma, 0.205 µM; with UACC-62 melanoma it was 0.148 µM; with UO-31 renal, 0.46 µM.
As for `CC(=O)/C(C)=N/NC(=O)c1ccccc1O`, the GI50 is above 10 µM with A498 renal; above 100 µM in the assay on HCT-116 colon; above 100 µM with LOX IMVI melanoma; above 100 µM in the assay with MALME-3M melanoma; above 10 µM in the assay on OVCAR-3 ovarian; above 10 µM with UACC-62 melanoma. Also, the TGI with A498 renal, with HCT-116 colon, in the assay with HS 578T breast, in the assay with LOX IMVI melanoma, in the assay with MALME-3M melanoma and in the assay with OVCAR-3 ovarian was above 100 µM in each case. Also, the TGI with PC-3 prostate was above 100 µM; in the assay with SK-MEL-5 melanoma it was above 100 µM; in the assay on UACC-62 melanoma, above 100 µM; in the assay with UO-31 renal it was above 10 µM.
Regarding `COc1cc2c(c(OC)c1OC)-c1ccc(OC)c(=O)cc1[C@@H](NC(=O)c1ccccc1)CC2`, the GI50 is below 0.003 µM in the assay on A498 renal; below 0.003 µM in the assay with HCT-116 colon; below 0.003 µM in the assay on HS 578T breast; 0.0105 µM with LOX IMVI melanoma; below 0.003 µM with MALME-3M melanoma; below 0.003 µM in the assay on OVCAR-3 ovarian. For the same compound, the GI50 is below 0.003 µM in the assay on PC-3 prostate, 0.00569 µM in the assay with SK-MEL-5 melanoma, below 0.003 µM with UACC-62 melanoma and above 30 µM in the assay with UO-31 renal. Besides, the TGI in the assay with LOX IMVI melanoma was 30 µM and 53.4 µM; in the assay with MALME-3M melanoma, 30 µM and 80.1 µM; in the assay on PC-3 prostate, 30 µM and > 56.5 µM; in the assay with UACC-62 melanoma, 30 µM and 59.7 µM; in the assay on UO-31 renal it was above 100 µM.
